“Also recorded” adds a separate entry of the source. Like-named read-outs stand apart in the source and are kept apart here. Marks after values point to notes of the source that are not given here.
Tests used:
[1] = cited from earlier work
[2] = system: Ptpn11^D61G/+ mice; experiment: Heart weight and histology (Masson's trichrome) after postnatal dasatinib; assay type: in vivo; conditions: NS mice
Procedure: FIG. 15, comprising FIG. 15a-15j, is a panel of images showing cardiomyopathy and cardiac fibrosis in Ptpn11^D61G/+ mice rescued by dasatinib. […] FIG. 15e is a graph showing relative expression of fibrosis marker gene, Col1a2. […] FIG. 15f is a graph showing relative expression of fibrosis marker gene, Col3a1. FIG. 15g is a graph showing relative expression of cardiac fetal gene, Myh6 (αMHC). FIG. 15h is a graph showing relative expression of cardiac fetal gene, Myh7 (βMHC). FIG. 15i is a graph showing relative expression of cardiac fetal gene, Anf. FIG. 15j is a graph showing relative expression of cardiac fetal gene, Bnp. The genes were measured by quantitative RT-PCR (n=6 for each group). […] (Two-way ANOVA test).

[3] = system: WT and Ptpn11^D61G/+ mice; conditions: for % EF (ejection fraction) / % FS (fractional shortening) / IVS, d (Intraventricular septum wall thickness, diastole) / IVS, s (Intraventricular septum wall thickness, systole) / LV vol, d (left ventricle volume, diastole) / LV vol, s (left ventricle volume, systole) / LVID, d (left ventricular internal dimension, diastole) / LVID, s (left ventricular internal dimension, systole) / LVPW, d (left ventricular posterior wall thickness, diastole) / LVPW, s (left ventricular posterior wall thickness, systole): n = 8, Mean ± SEM;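 for all read-outs here: echocardiography in isoflurane-anesthetized mice, M-mode tracings averaged over three to six heartbeats, FS derived from diastolic and systolic LVID, vehicle-injected mice as control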
Procedure: Echocardiographic Studies—Cardiac dimensions and function were analyzed by echocardiography using a Vevo 770 console, Mice were lightly anesthetized with inhaled isoflurane (0.2% in O2). All measurements were obtained from three to six consecutive cardiac cycles, and the averaged values used for analysis. Interventricular septum wall (IVS), left ventricular internal dimension (LVID) and left ventricular posterior wall thickness (LVPW) in both end-diastolic (d), end-systolic (s) were measured from the and M-mode tracings. Diastolic measurements were performed using the leading-edge method of the American Society of Echocardiography. For TM-mode measurements, left ventricular end-diastolic volume (LV vol,d) and end-systolic volume (LV vol,s) were calculated. Ejection fraction percentage (EF) was calculated as [(LVvol,d−LVvol,s)/VLvol,d]×100, and fractional shortening percentage was calculated as [(LVID,d−LVID,s)/LVID,d]×100.
Animal Handling—Ptpn11^D61G/+ mice were provided from Dr. Benjamin Neel (University of Toronto, Toronto) and were genotyped as described previously^9. Briefly, Ptpn11^D61G/+ male mice were crossed with wild type C75BL/6×SV 129 female mice and their offspring were genotyped by PCR and digestion with AgeI for the D61G allele. Dasatinib (Biovision) was suspended in vehicle (1% DMSO in phosphate buffer saline), For prenatal treatment, dasatinib was injected i.p. (0.1 mg/kg body weight) into pregnant mice daily, beginning on gestational day 7.5 (E7.5) continuing (in nursing females) until postnatal day 9. Vehicle-injected mice served as control. Beginning at P10, dasatinib or vehicle alone was injected (i.p.) directly into pups daily, until 8-weeks after birth. For postnatal treatment, dasatinib was injected (i.p.) into pups at P10, until 6-weeks after birth; injection was discontinued for 2-weeks.
Echocardiography—Mice were anesthetized in a sealed plastic chamber with 1% isofurane in oxygen until immobile, and then were transferred onto a heated procedure board (37° C.). Animal were kept anesthetized with 1% isoflurane supplied by a nose cone connected to the isoflurane vaporizer during the entire procedure. The scan head was placed on the chest of the mouse and stable image signals (both B mode and M mode) were acquired and data analyzed with Vevo 770 (VisualSonics). Systolic and distolic left ventricle peripheral wall thickness, chamber diameter and interventricular wall thickness were measured with M mode image. Percentage of ejection fraction (EF) and fractional shortening (FS) were calculated.

[4] = prenatal 0.1 mg/kg i.p. daily from E7.5, Ptpn11D61G/+ mice, P42
[5] = prenatal 0.1 mg/kg i.p. daily from E7.5, WT mice, P42
[6] = prenatal 0.1 mg/kg i.p. daily from E7.5 continued to P56, Ptpn11D61G/+ mice, P56
[7] = prenatal 0.1 mg/kg i.p. daily from E7.5 continued to P56, WT mice, P56

Cc1nc(Nc2ncc(C(=O)Nc3c(C)cccc3Cl)s2)cc(N2CCN(CCO)CC2)n1.O [Dasatinib, N-(2-chloro-6-methylphenyl)-2-[[6-[4-(2-hydroxyethyl)-1-piperazinyl]-2-methyl-4-pyrimidinyl]amino]-5-thiazole carboxamide monohydrate]
dose of therapeutic effects in humans ([1]; humans): ~2 mg/kg | equivalent dose in mice of the human therapeutic dose ([1]; mice equivalent): ~24 mg/kg | cardiac fibrosis at the histological level ([2]; P56): markedly reduced | pathologic cardiac phenotypes (heart weight, dilated cardiomyopathy, myofibrillar disorganization) ([2]; P56, monohydrate): profound reversal; also recorded: rescued | % EF (ejection fraction) [3, 4]: 62.62 ± 2.75 % | % FS (fractional shortening) [3, 4]: 34.29 ± 2.09 % | IVS, d (Intraventricular septum wall thickness, diastole) [3, 4]: 0.65 ± 0.06 mm | IVS, s (Intraventricular septum wall thickness, systole) [3, 4]: 0.97 ± 0.10 mm | LV vol, d (left ventricle volume, diastole) [3, 4]: 60.93 ± 3.75 mm^3 | LV vol, s (left ventricle volume, systole) [3, 4]: 24.21 ± 1.56 mm^3 | LVID, d (left ventricular internal dimension, diastole) [3, 4]: 3.61 ± 0.12 mm | LVID, s (left ventricular internal dimension, systole) [3, 4]: 2.32 ± 0.12 mm | LVPW, d (left ventricular posterior wall thickness, diastole) [3, 4]: 0.70 ± 0.04 mm | LVPW, s (left ventricular posterior wall thickness, systole) [3, 4]: 1.12 ± 0.07 mm | % EF (ejection fraction) [3, 5]: 64.24 ± 2.52% | % FS (fractional shortening) [3, 5]: 34.70 ± 1.82% | IVS, d (Intraventricular septum wall thickness, diastole) [3, 5]: 0.67 ± 0.04 mm | IVS, s (Intraventricular septum wall thickness, systole) [3, 5]: 1.08 ± 0.09 mm | LV vol, d (left ventricle volume, diastole) [3, 5]: 67.51 ± 2.54 mm^3 | LV vol, s (left ventricle volume, systole) [3, 5]: 22.26 ± 1.95 mm^3 | LVID, d (left ventricular internal dimension, diastole) [3, 5]: 3.93 ± 0.08 mm | LVID, s (left ventricular internal dimension, systole) [3, 5]: 2.49 ± 0.09 mm | LVPW, d (left ventricular posterior wall thickness, diastole) [3, 5]: 0.76 ± 0.05 mm | LVPW, s (left ventricular posterior wall thickness, systole) [3, 5]: 1.13 ± 0.04 mm | % EF (ejection fraction) [3, 6]: 51.83 ± 1.60% | % FS (fractional shortening) [3, 6]: 26.22 ± 1.01% | IVS, d (Intraventricular septum wall thickness, diastole) [3, 6]: 0.70 ± 0.03 mm | IVS, s (Intraventricular septum wall thickness, systole) [3, 6]: 1.02 ± 0.05 mm | LV vol, d (left ventricle volume, diastole) [3, 6]: 73.00 ± 3.42 mm^3 | LV vol, s (left ventricle volume, systole) [3, 6]: 37.43 ± 2.08 mm^3 | LVID, d (left ventricular internal dimension, diastole) [3, 6]: 4.06 ± 0.11 mm | LVID, s (left ventricular internal dimension, systole) [3, 6]: 3.08 ± 0.07 mm | LVPW, d (left ventricular posterior wall thickness, diastole) [3, 6]: 0.68 ± 0.02 mm | LVPW, s (left ventricular posterior wall thickness, systole) [3, 6]: 0.93 ± 0.06 mm | % EF (ejection fraction) [3, 7]: 50.96 ± 2.38 % | % FS (fractional shortening) [3, 7]: 25.84 ± 1.47 % | IVS, d (Intraventricular septum wall thickness, diastole) [3, 7]: 0.69 ± 0.04 mm | IVS, s (Intraventricular septum wall thickness, systole) [3, 7]: 1.07 ± 0.05 mm | LV vol, d (left ventricle volume, diastole) [3, 7]: 79.32 ± 1.22 mm^3 | LV vol, s (left ventricle volume, systole) [3, 7]: 40.34 ± 1.60*** mm^3 | LVID, d (left ventricular internal dimension, diastole) [3, 7]: 4.21 ± 0.07 mm | LVID, s (left ventricular internal dimension, systole) [3, 7]: 3.04 ± 0.10 mm | LVPW, d (left ventricular posterior wall thickness, diastole) [3, 7]: 0.71 ± 0.04 mm | LVPW, s (left ventricular posterior wall thickness, systole) [3, 7]: 0.95 ± 0.05 mm | cardiac function (EF and FS) ([3]; prenatal 0.1 mg/kg, NS mice, P42, monohydrate): improves cardiac function; also recorded: completely restored to wild type parameters; also recorded: complete restoration of cardiac function | cardiac failure on continued administration ([3]; prenatal regimen continued an additional 2 weeks to P56, wild type and NS mice): induced cardiac failure

Source: patent US10471059B2, “Compositions and methods of using tyrosine kinase inhibitors” (YALE UNIVERSITY, priority 2015, dated 2019)
